#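 Growth conditions: 96-well plates. Treatment: test compound, 48 hours, 5 concentrations. Analysis: linear interpolation between bracketing concentrations; unreached endpoints set to highest concentration. At the GI50, growth is halved. TGI denotes the concentration required for complete inhibition of growth.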
# Experiments:
# Test in all cases: NCI tumour cell line growth inhibition, 48 h
# [1] = tested on: NCI/ADR-RES ovarian
# [2] = tested on: NCI-H460 lung
# [3] = tested on: SNB-75 CNS
# [4] = tested on: IGROV1 ovarian
# [5] = tested on: DU-145 prostate
# [6] = tested on: HOP-92 NSCLC
# [7] = tested on: T-47D breast
# [8] = tested on: A498 renal
# [9] = tested on: SK-MEL-5 melanoma
# [10] = tested on: M14 melanoma
# [11] = tested on: MDA-MB-435
# [12] = tested on: OVCAR-5 ovarian
# [13] = tested on: RPMI-8226 leukemia
# [14] = tested on: SK-MEL-2 melanoma
# [15] = tested on: RXF 393 renal
# [16] = tested on: SK-MEL-28 melanoma
# [17] = tested on: HS 578T breast
# [18] = tested on: KM12 colon
# [19] = tested on: MDA-MB-231 breast
# [20] = tested on: HT29 colon
# [21] = tested on: LOX IMVI melanoma
# [22] = tested on: OVCAR-8 ovarian
# [23] = tested on: SF-295 CNS
# [24] = tested on: CAKI-1 renal
# [25] = tested on: NCI-H522 lung
# [26] = tested on: MALME-3M melanoma
# [27] = tested on: PC-3 prostate
# [28] = tested on: OVCAR-4 ovarian
# [29] = tested on: MCF7 breast
# [30] = tested on: HL-60(TB) leukemia
# [31] = tested on: EKVX NSCLC
# [32] = tested on: BT-549 breast
# [33] = tested on: UO-31 renal
# [34] = tested on: ACHN renal
# [35] = tested on: HCT-15 colon
# [36] = tested on: NCI-H226 lung
# [37] = tested on: SK-OV-3 ovarian
# [38] = tested on: COLO 205 colon
# [39] = tested on: MOLT-4 leukemia
# [40] = tested on: K-562 leukemia
# [41] = tested on: SF-539 CNS
# [42] = tested on: UACC-62 melanoma
# [43] = tested on: A549 NSCLC
# [44] = tested on: OVCAR-3 ovarian
# [45] = tested on: HOP-62 NSCLC
# [46] = tested on: CCRF-CEM leukemia
# [47] = tested on: SR leukemia
# [48] = tested on: SW-620 colon
# [49] = tested on: SNB-19 CNS
# [50] = tested on: UACC-257 melanoma
# [51] = tested on: TK-10 renal
# [52] = tested on: SF-268 CNS
# [53] = tested on: U251 CNS
# [54] = tested on: HCT-116 colon
# [55] = tested on: SN12C renal
# [56] = tested on: MDA-MB-468 breast
# [57] = tested on: HCC-2998 colon
# [58] = tested on: NCI-H23 lung
# [59] = tested on: 786-0 renal
smiles,measurement,setting,value
N#Cc1c(NC(=O)c2ccc(C(F)(F)F)cc2)sc2c1CCC(=O)C2,GI50,[1],718 nM
same,TGI,[1],2930 nM
same,GI50,[2],2860 nM
same,TGI,[2],11800 nM
same,GI50,[3],1910 nM
same,TGI,[3],5250 nM
same,GI50,[4],1230 nM
same,TGI,[4],2740 nM
same,GI50,[5],3750 nM
same,TGI,[5],> 100000 nM
same,GI50,[6],1190 nM
same,TGI,[6],3560 nM
same,GI50,[7],322 nM
same,TGI,[7],1380 nM
same,GI50,[8],24600 nM
same,TGI,[8],87500 nM
same,GI50,[9],1350 nM
same,TGI,[9],2640 nM
same,GI50,[10],1010 nM
same,TGI,[10],2850 nM
same,GI50,[11],1400 nM
same,TGI,[11],2970 nM
same,GI50,[12],1680 nM
same,TGI,[12],3500 nM
same,GI50,[13],273 nM
same,TGI,[13],> 100000 nM
same,GI50,[14],2070 nM
same,TGI,[14],4890 nM
same,GI50,[15],271 nM
same,TGI,[15],1230 nM
same,GI50,[16],820 nM
same,TGI,[16],2110 nM
same,GI50,[17],1170 nM
same,TGI,[17],5020 nM
same,GI50,[18],1280 nM
same,TGI,[18],4700 nM
same,GI50,[19],701 nM
same,TGI,[19],1980 nM
same,GI50,[20],465 nM
same,TGI,[20],2060 nM
same,GI50,[21],350 nM
same,TGI,[21],1480 nM
same,GI50,[22],1390 nM
same,TGI,[22],5900 nM
same,GI50,[23],1290 nM
same,TGI,[23],2960 nM
same,GI50,[24],572 nM
same,TGI,[24],2060 nM
same,GI50,[25],273 nM
same,TGI,[25],951 nM
same,GI50,[26],1150 nM
same,TGI,[26],2730 nM
same,GI50,[27],410 nM
same,TGI,[27],2790 nM
same,GI50,[28],1120 nM
same,TGI,[28],2780 nM
same,GI50,[29],553 nM
same,TGI,[29],10100 nM
same,GI50,[30],436 nM
same,TGI,[30],> 33200 nM
same,GI50,[31],1320 nM
same,TGI,[31],3660 nM
same,GI50,[32],1070 nM
same,TGI,[32],2510 nM
same,GI50,[33],467 nM
same,TGI,[33],1700 nM
same,GI50,[34],390 nM
same,TGI,[34],1400 nM
same,GI50,[35],362 nM
same,TGI,[35],1450 nM
same,GI50,[36],2180 nM
same,TGI,[36],7910 nM
same,GI50,[37],2430 nM
same,TGI,[37],6870 nM
same,GI50,[38],951 nM
same,TGI,[38],2330 nM
same,GI50,[39],419 nM
same,TGI,[39],> 30100 nM
same,GI50,[40],316 nM
same,GI50,[41],300 nM
same,TGI,[41],1060 nM
same,GI50,[42],691 nM
same,TGI,[42],2000 nM
same,GI50,[43],3520 nM
same,TGI,[43],16300 nM
same,GI50,[44],844 nM
same,TGI,[44],3200 nM
same,GI50,[45],2840 nM
same,TGI,[45],11400 nM
same,GI50,[46],345 nM
same,TGI,[46],> 33300 nM
same,GI50,[47],522 nM
same,TGI,[47],> 100000 nM
same,GI50,[48],411 nM
same,TGI,[48],1820 nM
same,GI50,[49],2200 nM
same,TGI,[49],13100 nM
same,GI50,[50],2150 nM
same,TGI,[50],> 22800 nM
same,GI50,[51],1050 nM
same,TGI,[51],6850 nM
same,GI50,[52],2160 nM
same,TGI,[52],11500 nM
same,GI50,[53],622 nM
same,TGI,[53],2470 nM
same,GI50,[54],359 nM
same,TGI,[54],2090 nM
same,GI50,[55],539 nM
same,TGI,[55],3200 nM
same,GI50,[56],557 nM
same,TGI,[56],2270 nM
same,GI50,[57],1430 nM
same,TGI,[57],2930 nM
same,GI50,[58],402 nM
same,TGI,[58],2090 nM
same,GI50,[59],2500 nM
same,TGI,[59],> 41200 nM

# Source: PubChem BioAssay (NCI)
